The values that follow come from ChEMBL document CHEMBL1148103, “Antifungal steroidal glycosides from the patagonian starfish anasteriasminuta: structure-activity correlations” (2002).

Each structure is given as a SMILES string. Active and inactive are the calls of the source. No cut-off for these calls is given here.

The first assay deals with Cladosporium cucumerinum. As to the kind of experiment: Antifungal activity against Cladosporium cucumerinum at 10 ug/spot after 2 to 3 days by bioautographic assay. Format: functional.
For `CCCCNC(=O)n1c(NC(=O)OC)nc2ccccc21` [BENOMYL], the “inhibition zone (IZ)” value was determined as 20 mm.

In a further assay the test system is Cladosporium cucumerinum. The assay can be described thus: Antifungal activity against Cladosporium cucumerinum after 2 to 3 days by bioautographic assay. Format: functional, organism-based.
As to `CC(C)CC(=O)C[C@@](C)(O)[C@H]1CC[C@H]2[C@@H]3C[C@H](O[C@@H]4O[C@H](C)[C@@H](O)[C@H](O[C@@H]5OC[C@@H](O)[C@H](O)[C@H]5O[C@@H]5O[C@H](C)[C@@H](O)[C@H](O)[C@H]5O)[C@H]4O)[C@H]4C[C@@H](OS(=O)(=O)O)CC[C@]4(C)C3=CC[C@@]21C`, the result was inactive. On the same count and under the same terms, then `CC(=O)[C@H]1CC[C@H]2[C@@H]3C[C@H](O[C@@H]4O[C@H](C)[C@@H](O)[C@H](O[C@@H]5OC[C@@H](O[C@@H]6O[C@H](CO)[C@H](O)[C@H](O)[C@H]6O[C@@H]6O[C@H](C)[C@H](O[C@@H]7O[C@H](CO)[C@H](O)[C@H](O)[C@H]7O)[C@H](O)[C@H]6O)[C@H](O)[C@H]5O[C@@H]5O[C@H](C)[C@@H](O)[C@H](O)[C@H]5O)[C@H]4O)[C@H]4C[C@@H](OS(=O)(=O)O)CC[C@]4(C)C3=CC[C@]12C`, with “inactive”; and `CC(C)CC(=O)C[C@@](C)(O)[C@H]1CC[C@H]2[C@@H]3C[C@H](O[C@@H]4O[C@H](C)[C@@H](O)[C@H](O[C@@H]5OC[C@@H](O[C@@H]6O[C@H](CO)[C@H](O)[C@H](O)[C@H]6O[C@@H]6O[C@H](C)[C@H](O)[C@H](O)[C@H]6O)[C@H](O)[C@H]5O[C@@H]5O[C@H](C)[C@@H](O)[C@H](O)[C@H]5O)[C@H]4O)[C@H]4C[C@@H](OS(=O)(=O)O)CC[C@]4(C)C3=CC[C@@]21C`, with “Dose-dependent effect”. On the same count and under the same terms, then `CC(C)CC(=O)C[C@@](C)(O)[C@H]1CC[C@H]2[C@@H]3C[C@H](O[C@@H]4O[C@H](C)[C@@H](O)[C@H](O[C@@H]5OC[C@@H](O[C@@H]6O[C@H](CO)[C@H](O)[C@H](O)[C@H]6O[C@@H]6O[C@H](C)[C@H](O[C@@H]7O[C@H](CO)[C@H](O)[C@H](O)[C@H]7O)[C@H](O)[C@H]6O)[C@H](O)[C@H]5O[C@@H]5O[C@H](C)[C@@H](O)[C@H](O)[C@H]5O)[C@H]4O)[C@H]4C[C@@H](OS(=O)(=O)O)CC[C@]4(C)C3=CC[C@@]21C`, with “Dose-dependent effect”.

For `CC(C)CC(=O)C[C@@H](C)[C@H]1CC[C@H]2[C@@H]3C[C@H](O[C@@H]4O[C@H](C)[C@@H](O)[C@H](O[C@@H]5OC[C@@H](O[C@@H]6O[C@H](CO)[C@H](O)[C@H](O)[C@H]6O[C@@H]6O[C@H](C)[C@H](O[C@@H]7O[C@H](CO)[C@H](O)[C@H](O)[C@H]7O)[C@H](O)[C@H]6O)[C@H](O)[C@H]5O[C@@H]5O[C@H](C)[C@@H](O)[C@H](O)[C@H]5O)[C@H]4O)[C@H]4C[C@@H](OS(=O)(=O)O)CC[C@]4(C)C3=CC[C@]12C`, the Activity entry is “Dose-dependent effect”.
